{"source": "patent US7091220B2", "about": "“Substituted indole Mannich bases” (Gruenenthal GmbH, priority 1999, dated 2006)", "data": [{"molecular_target": "T1, 5-HT transporter (Rattus norvegicus, UniProt P31652)", "T1 construct": "these vesicular particles were isolated from the pons and medulla oblongata region of the male rat brain; from tissue; host or cells: rat brain synaptosomes (P2 fraction) from pons and medulla oblongata of male rats", "T1 sequence (P31652 whole entry)": "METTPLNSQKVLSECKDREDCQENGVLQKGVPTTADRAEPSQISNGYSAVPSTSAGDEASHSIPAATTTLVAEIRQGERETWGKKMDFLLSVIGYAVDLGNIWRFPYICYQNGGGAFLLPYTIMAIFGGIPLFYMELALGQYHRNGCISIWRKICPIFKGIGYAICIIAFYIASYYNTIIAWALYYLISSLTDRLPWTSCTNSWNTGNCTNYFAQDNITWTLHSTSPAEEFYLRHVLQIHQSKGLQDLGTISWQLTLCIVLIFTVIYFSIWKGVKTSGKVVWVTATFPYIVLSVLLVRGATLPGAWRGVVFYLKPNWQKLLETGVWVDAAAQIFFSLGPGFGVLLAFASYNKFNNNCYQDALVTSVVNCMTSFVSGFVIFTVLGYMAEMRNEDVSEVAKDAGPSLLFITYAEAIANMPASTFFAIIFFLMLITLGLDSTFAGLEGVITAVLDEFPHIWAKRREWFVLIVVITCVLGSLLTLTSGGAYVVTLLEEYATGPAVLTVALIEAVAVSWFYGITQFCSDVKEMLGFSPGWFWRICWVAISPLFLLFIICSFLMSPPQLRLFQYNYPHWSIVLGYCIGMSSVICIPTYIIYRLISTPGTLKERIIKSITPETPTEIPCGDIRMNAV", "experiment": "Inhibition of serotonin re-uptake (5-HT uptake inhibition) in rat brain synaptosomes", "type": "biochemical", "settings": "rat brain synaptosomes (P2 fraction, pons and medulla oblongata); means from 2 parallel experiments; concentration not given", "protocol": "The investigations of the inhibition of serotonin re-uptake (5-HT uptake inhibition) were carried out by the methods such as are described in M. Ch. Frink, H. -H. -Hennies, W. Englberger, M. Haurand and B. Wilffert, Arzneim.-Forsch./Drug. Res. 46 (III), 11, 1996, pages 1029–1036. They are introduced herewith as reference and thus form part of the disclosure.\nTo carry out these investigations, synaptosomes were freshly isolated from rat brain areas. In each case the so-called “P2” fraction was used, which was prepared according to the instructions in E. G. Gray and V. P. Whittaker, J. Anat. 76, pages 79–88, 1962. This literature is introduced herewith as reference and thus forms part of the disclosure. For determination of the 5-HT uptake, these vesicular particles were isolated from the pons and medulla oblongata region of the male rat brain.\nThe following characteristic data were determined for the 5-HT transporter: • 5-HT uptake: Km=0.084±0.011 μM • Vmax: 38.13±4.52 pmol/min/mg protein.\nThe results of the investigations are in each case stated as means from 2 parallel experiments.", "units": {"Inhibition of 5HT uptake in %": "%"}, "values": [{"compound": "COc1ccc(C(c2c(-c3ccc(Cl)cc3)[nH]c3ccccc23)N(C)C)cc1OC", "note": "(stereo not shown) [Example 79, [[2-(4-Chloro-phenyl)-1H-indol-3-yl]-(3,4-dimethoxy-phenyl)-methyl]-dimethyl-amine]", "Inhibition of 5HT uptake in %": 50}, {"compound": "CN(C)C(c1ccccc1C(F)(F)F)c1c[nH]c2ccc(Cl)cc12", "note": "(stereo not shown) [Example 102, [(5-Chloro-1H-indol-3-yl)-(2-trifluoromethyl-phenyl)-methyl]-dimethyl-amine]", "Inhibition of 5HT uptake in %": 42}, {"compound": "Cc1cccc(C(c2c[nH]c3ccc(Cl)cc23)N(C)C)c1", "note": "(stereo not shown) [Example 92, [(5-Chloro-1H-indol-3-yl)-m-tolyl-methyl]-dimethyl-amine]", "Inhibition of 5HT uptake in %": 46}, {"compound": "Cc1ccc(C(c2c(C)[nH]c3ccccc23)N(C)C)cc1", "note": "(stereo not shown) [Example 93, Dimethyl-[(2-methyl-1H-indol-3-yl)-p-tolyl-methyl]-amine]", "Inhibition of 5HT uptake in %": 78}, {"compound": "CN(C)C(c1cccc(Oc2ccccc2)c1)c1cn(C)c2ccccc12", "note": "(stereo not shown) [Example 98, Dimethyl-[(1-methyl-1H-indol-3-yl)-(3-phenoxy-phenyl)-methyl]-amine]", "Inhibition of 5HT uptake in %": 66}, {"compound": "CCc1cccc2c(C(c3ccccc3OC)N(C)C)c[nH]c12", "note": "(stereo not shown) [Example 87, [(7-Ethyl-1H-indol-3-yl)-(2-methoxy-phenyl)-methyl]-dimethyl-amine]", "Inhibition of 5HT uptake in %": 50}, {"compound": "Cc1[nH]c2ccccc2c1C(c1c(F)cccc1Cl)N(C)C", "note": "(stereo not shown) [Example 74, [(2-Chloro-6-fluoro-phenyl)-(2-methyl-1H-indol-3-yl)-methyl]-dimethyl-amine]", "Inhibition of 5HT uptake in %": 72}, {"compound": "Cc1cccc2[nH]cc(C(c3ccc(F)cc3)N(C)C)c12", "note": "(stereo not shown) [Example 86, [(4-Fluoro-phenyl)-(4-methyl-1H-indol-3-yl)-methyl]-dimethyl-amine]", "Inhibition of 5HT uptake in %": 41}, {"compound": "CCn1c(-c2ccccc2)c(C(c2cccc(Oc3ccccc3)c2)N(C)C)c2ccccc21", "note": "(stereo not shown) [Example 96, [(1-Ethyl-2-phenyl-1H-indol-3-yl)-(3-phenoxy-phenyl)-methyl]-dimethylamine]", "Inhibition of 5HT uptake in %": 55}, {"compound": "Cc1ccccc1C(c1c[nH]c2ccc(Cl)cc12)N(C)C", "note": "(stereo not shown) [Example 91, [(5-Chloro-1H-indol-3-yl)-o-tolyl-methyl]-dimethyl-amine]", "Inhibition of 5HT uptake in %": 49}, {"compound": "Cc1ccccc1C(c1cn(C)c2ccccc12)N(C)C", "note": "(stereo not shown) [Example 90, Dimethyl-[(1-methyl-1H-indol-3-yl)-o-tolyl-methyl]-amine]", "Inhibition of 5HT uptake in %": 44}, {"compound": "COc1ccc(C(c2c(C)[nH]c3ccccc23)N(C)C)cc1OC", "note": "(stereo not shown) [Example 78, [(3,4-Dimethoxy-phenyl)-(2-methyl-1H-indol-3-yl)-methyl]-dimethyl-amine]", "Inhibition of 5HT uptake in %": 73}, {"compound": "COc1cccc(C(c2c[nH]c3cccc([N+](=O)[O-])c23)N(C)C)c1OC", "note": "(stereo not shown) [Example 75, [(2,3-Dimethoxy-phenyl)-(4-nitro-1H-indol-3-yl)-methyl]-dimethylamine]", "Inhibition of 5HT uptake in %": 39}, {"compound": "Cc1ccc(C(c2c[nH]c3ccc(Cl)cc23)N(C)C)cc1", "note": "(stereo not shown) [Example 94, [(5-Chloro-1H-indol-3-yl)-p-tolyl-methyl]-dimethyl-amine]", "Inhibition of 5HT uptake in %": 64}, {"compound": "CN(C)C(c1ccccc1F)c1c[nH]c2ccc(Cl)cc12", "note": "(stereo not shown) [Example 85, [(5-Chloro-1H-indol-3-yl)-(2-fluoro-phenyl)-methyl]-dimethyl-amine]", "Inhibition of 5HT uptake in %": 44}, {"compound": "COc1cccc(C(c2c[nH]c3c2CC=C(C(=O)O)C3)N(C)C)c1OC", "note": "(stereo not shown) [Example 76, 3-[(2,3-Dimethoxy-phenyl)-dimethylamino-methyl]-4,7-dihydro-1H-indole-6-carboxylic Acid]", "Inhibition of 5HT uptake in %": 42}]}, {"test_system": "α2-subtype of the human α-adrenergic receptor", "experiment": "SPA test, affinity for the α2-subtype of the human α-adrenergic receptor", "type": "binding", "settings": "not given", "protocol": "(§1) Wide-ranging testing of the indole Mannich bases according to the invention for their activity was carried out by the conventional high throughput screening methods, such as are described in John P. Devlin, High Throughput Screening, 1997, Marcel Dekker Inc. They are introduced here as a reference and are therefore part of the disclosure.\n(§2) The action of the indole Mannich bases according to the invention is determined in particular by the affinity for the N-methyl-D-aspartate (NMDA) receptor family, for (α-adrenergic receptors and opioid receptors.\n(§3) The compounds of the general formula 1 according to the invention investigated are suitable as ligands for the α2-subtype of the human α-adrenergic receptor, which is of importance for pain sensation.\n(§4) The affinity of the compounds according to the invention for this α2-subtype of the α-adrenergic receptor has been determined with the aid of the SPA test such as is described in John P. Devlin, High Throughput Screening, Marcel Dekker Inc. 1997, pages 307 to 316. This literature is introduced herewith as a reference and is therefore part of the disclosure. The affinities of the compounds according to the invention were in each case determined at a concentration of 10 μM.", "units": {"% Inhibition of α2 (humans), 10 μM": "%"}, "values": [{"compound": "CN(C)C(c1c(F)cccc1Cl)c1c(-c2ccc(Cl)cc2)[nH]c2ccccc12", "note": "(stereo not shown) [Example 67, {(2-Chloro-6-fluoro-phenyl)-[2-(4-chloro-phenyl)-1H-indol-3-yl]-methyl}-dimethyl-amine]", "% Inhibition of α2 (humans), 10 μM": 36}, {"compound": "CN(C)C(c1cccc(Br)c1)c1cn(C)c2ccccc12", "note": "(stereo not shown) [Example 60, [(3-Bromo-phenyl)-(1-methyl-1H-indol-3-yl)-methyl]-dimethyl-amine]", "% Inhibition of α2 (humans), 10 μM": 66}, {"compound": "CCn1c(-c2ccccc2)c(C(c2ccc(C(C)(C)C)cc2)N(C)C)c2ccccc21", "note": "(stereo not shown) [Example 62, [(4-tert-Butyl-phenyl)-(1-ethyl-2-phenyl-1H-indol-3-yl)-methyl]-dimethyl-amine]", "% Inhibition of α2 (humans), 10 μM": 51}, {"compound": "CN(C)C(c1ccc(F)cc1Cl)c1c[nH]c2cccc([N+](=O)[O-])c12", "note": "(stereo not shown) [Example 64, [(2-Chloro-4-fluoro-phenyl)-(4-nitro-1H-indol-3-yl)-methyl]-dimethyl-amine]", "% Inhibition of α2 (humans), 10 μM": 48}, {"compound": "CN(C)C(c1ccccc1Br)c1cn(C)c2ccccc12", "note": "(stereo not shown) [Example 58, [(2-Bromo-phenyl)-(1-methyl-1H-indol-3-yl)-methyl]-dimethyl-amine]", "% Inhibition of α2 (humans), 10 μM": 82}, {"compound": "5-Benzyloxy-3-(phenyl-pyrrolidin-yl-methyl)-1H-indole [Example 50]", "% Inhibition of α2 (humans), 10 μM": 51}, {"compound": "Cc1cccc2[nH]cc(C(c3ccc(F)cc3Cl)N(C)C)c12", "note": "(stereo not shown) [Example 65, [(2-Chloro-4-fluoro-phenyl)-(4-methyl-1H-indol-3-yl)-methyl]-dimethyl-amine]", "% Inhibition of α2 (humans), 10 μM": 42}, {"compound": "CN(C)C(c1ccc(C(C)(C)C)cc1)c1cn(C)c2ccccc12", "note": "(stereo not shown) [Example 63, [(4-tert-Butyl-phenyl)-(1-methyl-1H-indol-3-yl)-methyl]-dimethyl-amine]", "% Inhibition of α2 (humans), 10 μM": 60}, {"compound": "CN(C)C(c1ccc(Cl)cc1Cl)c1cn(C)c2ccccc12", "note": "(stereo not shown) [Example 71, [(2,4-Dichloro-phenyl)-(1-methyl-1H-indol-3-yl)-methyl]-dimethyl-amine]", "% Inhibition of α2 (humans), 10 μM": 50}, {"compound": "CCn1c(-c2ccccc2)c(C(c2c(F)cccc2Cl)N(C)C)c2ccccc21", "note": "(stereo not shown) [Example 54, [(2-Chloro-6-fluoro-phenyl)-(1-ethyl-2-phenyl-1H-indol-3-yl)-methyl]-dimethylamine]", "% Inhibition of α2 (humans), 10 μM": 55}, {"compound": "CN(C)C(c1cccc(Cl)c1Cl)c1cn(C)c2ccccc12", "note": "(stereo not shown) [Example 70, [(2,3-Dichloro-phenyl)-(1-methyl-1H-indol-3-yl)-methyl]-dimethyl-amine]", "% Inhibition of α2 (humans), 10 μM": 63}, {"compound": "Cc1[nH]c2ccccc2c1C(c1ccc(C(C)(C)C)cc1)N(C)C", "note": "(stereo not shown) [Example 61, [(4-tert-Butyl-phenyl)-(2-methyl-1H-indol-3-yl)-methyl]-dimethyl-amine]", "% Inhibition of α2 (humans), 10 μM": 63}, {"compound": "Cc1[nH]c2ccc([N+](=O)[O-])cc2c1C(c1ccccc1)N(C)C", "note": "(stereo not shown) [Example 15, Dimethyl-[(2-methyl-5-nitro-1H-indol-3-yl)-phenylmethyl]-amine]", "% Inhibition of α2 (humans), 10 μM": 40}, {"compound": "CN(C)C(c1ccccc1Br)c1c[nH]c2cccc([N+](=O)[O-])c12", "note": "(stereo not shown) [Example 57, [(2-Bromo-phenyl)-(4-nitro-1H-indol-3-yl)-methyl]-dimethyl-amine]", "% Inhibition of α2 (humans), 10 μM": 64}, {"compound": "CN(C)C(c1cc(Br)ccc1F)c1c[nH]c2cccc([N+](=O)[O-])c12", "note": "(stereo not shown) [Example 51, [(5-Bromo-2-fluoro-phenyl)-(4-nitro-1H-indol-3-yl)-methyl]-dimethyl-amine]", "% Inhibition of α2 (humans), 10 μM": 43}, {"compound": "CCc1cccc2c(C(c3cccc(Br)c3)N(C)C)c[nH]c12", "note": "(stereo not shown) [Example 59, [(3-Bromo-phenyl)-(7-ethyl-1H-indol-3-yl)-methyl]-dimethyl-amine]", "% Inhibition of α2 (humans), 10 μM": 37}, {"compound": "CN(C)C(c1cccc(Cl)c1)c1cn(C)c2ccccc12", "note": "(stereo not shown) [Example 69, [(3-Chloro-phenyl)-(1-methyl-1H-indol-3-yl)-methyl]-dimethyl-amine]", "% Inhibition of α2 (humans), 10 μM": 75}, {"compound": "CN(C)C(c1cc(Br)ccc1F)c1cn(C)c2ccccc12", "note": "(stereo not shown) [Example 52, [(5-Bromo-2-fluoro-phenyl)-(1-methyl-1H-indol-3-yl)-methyl]-dimethyl-amine]", "% Inhibition of α2 (humans), 10 μM": 37}]}, {"test_system": "α2-subtype of the human α-adrenergic receptor", "experiment": "SPA test, affinity for the α2-subtype of the human α-adrenergic receptor", "type": "binding", "settings": "10 µM", "protocol": "as §1, §2, §3, §4", "units": {"% Inhibition of α2 (humans), 10 μM": "%"}, "values": [{"compound": "CN(C)C(c1c(F)cccc1Cl)c1cn(C)c2ccccc12", "note": "(stereo not shown) [Example 56, [(2-Chloro-6-fluoro-phenyl)-(1-methyl-1H-indol-3-yl)-methyl]-dimethyl-amine]", "% Inhibition of α2 (humans), 10 μM": 39}, {"compound": "CN(C)C(c1c(F)cccc1Cl)c1c(-c2ccccc2)[nH]c2ccccc12", "note": "(stereo not shown) [Example 53, [(2-Chloro-6-fluoro-phenyl)-(2-phenyl-1H-indol-3-yl)-methyl]-dimethylamine]", "% Inhibition of α2 (humans), 10 μM": 38}, {"compound": "CN(C)C(c1c(F)cccc1Cl)c1c(-c2ccccc2)[nH]c2ccccc12", "note": "(stereo not shown) [Example 66, [(2-Chloro-6-fluoro-phenyl)-(2-phenyl-1H-indol-3-yl)-methyl]-dimethyl-amine]", "% Inhibition of α2 (humans), 10 μM": 44}]}]}
